As usually defined, the Ki is the dissociation constant of the complex between target and ligand, obtained from inhibition or displacement.

Molecules are shown by their SMILES. Entries after “also recorded” stand apart in the source; their conditions may differ.

The subject of one data set is ER. Conditions: cited from earlier work.
The target of data set [1] is T1, ERα (Homo sapiens, UniProt P03372).
T1 sequence (P03372 1-595): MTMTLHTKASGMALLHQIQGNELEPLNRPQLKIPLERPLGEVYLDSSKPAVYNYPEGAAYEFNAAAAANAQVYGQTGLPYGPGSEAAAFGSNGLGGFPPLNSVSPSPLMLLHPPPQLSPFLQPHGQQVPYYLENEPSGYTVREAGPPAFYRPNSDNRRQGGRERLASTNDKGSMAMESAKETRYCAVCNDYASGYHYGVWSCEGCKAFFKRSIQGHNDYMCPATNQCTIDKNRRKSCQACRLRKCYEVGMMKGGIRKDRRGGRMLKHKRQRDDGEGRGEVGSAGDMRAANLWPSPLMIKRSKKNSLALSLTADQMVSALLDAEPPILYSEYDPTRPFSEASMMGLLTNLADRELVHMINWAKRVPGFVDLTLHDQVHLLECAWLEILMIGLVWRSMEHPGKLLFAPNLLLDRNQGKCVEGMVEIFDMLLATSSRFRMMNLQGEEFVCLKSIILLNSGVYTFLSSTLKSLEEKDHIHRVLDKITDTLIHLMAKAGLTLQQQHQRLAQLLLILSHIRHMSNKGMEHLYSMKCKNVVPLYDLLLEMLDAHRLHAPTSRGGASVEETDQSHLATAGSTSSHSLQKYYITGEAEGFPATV
The data set can be described thus: Competition binding with [3H]estradiol in MCF-7 cells. Conditions: for activity in in vitro assays (result in words): binding and transactivation assays, experimental testing; for Ki: competition with radioactive-labeled estradiol.

The target in data set [2] is T1, ERα. Conditions: cited from earlier work.
The conditions of data set [3]: established by JECFA; ref www.fao.org/ag/agn/jecfa-additives; cited from earlier work.

In the case of `CCCCOC(=O)c1ccc(O)cc1` [butyl p-hydroxybenzoate], the “binding to ER (result in words)” value with ER is “known to bind to ER; also recorded: weak binders”.
Regarding `COc1cc(CNC(=O)CCCC/C=C/C(C)C)ccc1O` [capsaicin], the “activity in in vitro assays (result in words)” value (“activity in in vitro assays” for short) at ERα [1] was “inactive”.
Regarding `COc1cc(/C=C/C(=O)CC(=O)/C=C/c2ccc(O)c(OC)c2)ccc1O` [curcumin], the “binding to the receptor in the competition assay (result in words)” value at ERα [1] (competitor 1 nM to 0.25 μM) is “lack binding activity”.
For `CC(Cc1ccc(O)c(O)c1)C(C)Cc1ccc(O)c(O)c1` (centres unmarked) [nordihydroguaiaretic acid], the “binding to ER (result in words)” value in the data set with ER is given as “known to bind to ER; also recorded: nanomolar binding affinity/potency”.
For `CCCCCCCCOC(=O)c1cc(O)c(O)c(O)c1` [octyl gallate], the “activity in in vitro assays” value at ERα [1] is listed as “only the propyl gallate resulted active”.
With `CCCOC(=O)c1cc(O)c(O)c(O)c1` [propyl gallate], the “transactivation activity (result in words)” value at ERα [2] is “high micromolar range”. For the same compound, the “activity in in vitro assays” value on ERα [1] is on record as “active”. Further, the Ki at ERα [1] (binding constant, Figure 4a) is 54 nM; at ERα [1] (pKi), 40.7 nM. Also, in data set [3], the acceptable daily intake is 0−1.4 mg/kg.
Regarding `CCCOC(=O)c1ccc(O)cc1` [propyl p-hydroxybenzoate], the “binding to ER (result in words)” value in the data set with ER is given as “known to bind to ER”.

The values above are taken from PMC2758355 (Chemical research in toxicology, 2009).
